Consider 4 compounds from patent US20050221328A1, “Inhibitors of inflammatory gene activity and cholesterol biosynthesis” (Wyeth, priority 2002, published 2005).

Assay [1] deals with Fnk, JAB, LIX, bcl-3 and SHP. The experiment in a line: Liver expression of Fnk, JAB, LIX, bcl-3 and SHP by realtime PCR after estrogen receptor ligand pretreatment and IL-1β. The note with it: for effect on regulation of liver Fnk, JAB, LIX, bcl-3 and SHP expression vs IL-1β alone / inhibition of IL-1β induction of Fnk, JAB, LIX and bcl-3: 100 ug/kg/day EE, 5 mg/kg/day raloxifene; for effect on regulation of liver Fnk, JAB, LIX, bcl-3 and SHP expression vs IL-1β alone: 1 or 10 mg/kg/day E2, 30 mg/kg/day genistein, 10 mg/kg/day ICI182780, plus IL-1β; for inhibition of IL-1β induction of Fnk, JAB, LIX and bcl-3: mouse liver, 30 mg/kg/day genistein. On the procedure:
Referring to FIG. 3a, to distinguish these two mechanisms, the IL-1β fold induction of Fnk, JAB, LIX, and bcl-3 and the IL-1β fold repression of SHP was quantified in animals pretreated with vehicle (black bars) or 100 ug/kg/day EE (grey bars). Liver RNA levels of each gene (mean +/−SEM) were determined by realtime PCR of RNA from each individual animal.
Referring to FIGS. 4a, 4b, 4c, 4d and 4e, experiments were conducted to determine whether EE blocks IL-1β induction of gene expression by an estrogen receptor (ER) dependent mechanism. Estrogens can regulate gene expression by many mechanisms including ER independent pathways such as antioxidant mechanisms. […] Liver expression levels of Fnk, JAB, LIX, bcl-3 and SHP (mean +/−SEM) were determined by realtime PCR.
Referring to FIGS. 5a, 5b, 5c, 5d, and 5e, experiments were conducted to determine whether ERα is required for EE regulation of gene expression in the liver. To determine whether ERα or ERβ mediated the EE effects on IL-1β gene expression in the liver, C57BL/6 wild type mice, C57BL/6 ERαKO mice, or 129 ERβKO mice were pretreated with vehicle (black bars) or […] EE (gray bars) for 5 days followed by a 1 hour treatment with IL-1β. Liver expression levels of Fnk, JAB, LIX, bcl-3, and SHP (mean +/−SEM) were quantified by realtime PCR, with expression in animals receiving vehicle+PBS defined as 1.0.

A further assay concerns human SHP promoter. The experiment in a line: hSHP promoter luciferase reporter in HepG2 or 293 cells cotransfected with human ERα. It counts as cell-based. The note with it: for SHP promoter activity, compound alone: 10 nM E2 or 1 uM compound, 24 hours. Here is the method:
Referring to FIGS. 11a and 11b, ERα regulation of hSHP promoter activity in human cells was examined. Human HepG2 or 293 cells were cotransfected with a control SV40 driven β-galactosidase plasmid, a luceriferase plasmid driven by 1.4 kb of the human SHP promoter, and an expression plasmid encoding either no protein or human ERα. […] Cell extracts were then analyzed for luciferase activity normalized for β-galactosidase activity.
Referring to FIGS. 12a, 12b, and 12c, ERα regulation of hSHP promoter activity in 293 cells was examined. Referring to FIGS. 12a and 12b, 293 cells were cotransfected with a control SV4O driven […] plasmid, a luceriferase plasmid driven by either 1.4 kb of the human SHP promoter or a synthetic 2×ERE/TK promoter, and an expression plasmid for human ERα. […] Cell extracts were then analyzed for luciferase activity with normalization for β-galaetosidase activity.
A general note: In a reporter assay the amount or activity of a reporter protein is the signal.

In assay [2] the test system is SHP. Kind of assay: Regulation of SHP expression in mouse liver, six weeks treatment, real time PCR. It counts as in vivo. The note with it: for liver SHP mRNA levels, WT animals: ovariectomized wildtype mice, sc six weeks, 10 ug/kg/day E2, 5 mg/kg/day tamoxifen, 5 mg/kg/day PPT. Here is the method:
Several experiments were conducted to investigate the regulation of SHP expression, as follows. Referring to FIG. 9, ERα regulation of SHP expression in mouse liver was studied. […] Liver expression of SHP was monitored by real time PCR, with normalization for GAPDH expression. […] ICI182780 inhibited this induction.
On the technique in general: Quantitative PCR measures a nucleic acid by following its amplification.

The subject of assay [3] is SHP. Kind of assay: Regulation of SHP by estrogen in the rat liver, real time PCR. The format is in vivo. The note with it: ovariectomized Sprague-Dawley rats, 10 ug/kg/day E2 or 5 mg/kg/day PPT, six weeks. The source says: Liver expression of SHP was monitored by real time PCR, with normalization for GAPDH expression.
The test system of assay [4] is prostaglandin D synthase, IPS. The experiment in a line: Liver expression of prostaglandin D synthase and IPS. The format is in vivo. To be noted: mouse liver; 30 mg/kg/day genistein, 5 mg/kg/day raloxifene. The source says: Referring to FIGS. 6a and 6b, experiments were constructed and performed to establish that EE induction of gene expression is not required for ERα inhibition of IL-1β gene inductions. […] The expression level in the vehicle+PBS treated mice was defined as 1.0. […] However, there was no correlation between the ability of these compounds to inhibit IL-1β gene induction (EE>genistein>raloxifene) and the ability of these compounds to stimulate prostaglandin D synthase expression (EE>>raloxifene>genistein).

Entries after “also recorded” stand apart in the source; their conditions may differ.

`C[C@]12CC[C@@H]3c4ccc(O)cc4CC[C@H]3[C@@H]1CC[C@@H]2O` [E2, 17β-estradiol]: the “effect on regulation of liver Fnk, JAB, LIX, bcl-3 and SHP expression vs IL-1β alone” value (shortened to “effect on regulation … vs IL-1β alone”) in assay [1] (mice) is given as “greatest effect”. Besides, the “SHP promoter activity, compound alone” value in the assay with human SHP promoter (293 cells with human ERα) is “stimulated”. The SHP promoter activity result in the assay on human SHP promoter (HepG2 or 293 cells, 10 nM E2 24 hours, only in cells expressing ERα) was “induced”. In the assay on SHP [2] (10 ug/kg/day E2, six weeks), the “expression of SHP in ERαKO or ERαβKO mice” value is “did not induce” and the “expression of SHP in ERβKO mice” value is listed as “still induced”. The “liver SHP mRNA levels, WT animals” value with SHP [2] is recorded as “induced”. Besides, the “liver SHP expression, rat” value in the assay on SHP [3] is listed as “significantly induced”.
As to `O=C(c1ccc(OCCN2CCCCC2)cc1)c1c(-c2ccc(O)cc2)sc2cc(O)ccc12` [raloxifene], the “induction of IPS” value in assay [4] was “very weak induction”. Moreover, the “SHP expression in liver” value in assay [1] (mice, 5 mg/kg/day raloxifene (FIG. 4)) is given as “did not increase”. In addition, the “effect on regulation … vs IL-1β alone” value in assay [1] (mice) was “magnitude was not as great”. In assay [1], the “inhibition of IL-1β induction of Fnk, JAB, LIX and bcl-3” value was “able to inhibit; also recorded: inhibited”. In the assay with human SHP promoter (293 cells with human ERα), the “SHP promoter activity, compound alone” value is “inactive alone”. Besides, in the assay with human SHP promoter (293 cells with human ERα, 1 uM compound plus 10 nM E2), the “effect on E2 activity at SHP promoter” value was “antagonized”.
`CCCc1c(-c2ccc(O)cc2)nn(-c2ccc(O)cc2)c1-c1ccc(O)cc1` [PPT]: the “liver SHP mRNA levels, WT animals” value in the assay on SHP [2] is given as “induced”. Also, the “liver SHP expression, rat” value in the assay on SHP [3] is reported as “significantly induced”.
On to `O=c1c(-c2ccc(O)cc2)coc2cc(O)cc(O)c12` [Genistein, genistein], for which, in assay [4], the “induction of IPS” value is listed as “no induction”. Also, the “effect on regulation … vs IL-1β alone” value in assay [1] (mice) was “magnitude was not as great”. In assay [1], the “inhibition of IL-1β induction of Fnk, JAB, LIX and bcl-3” value is reported as “inhibited”.
